Source: patent US7531555B2, “Compositions and methods for selective inhibition of nicotine acetylcholine receptors” (University of Florida Research Foundation, Inc., priority 2003, dated 2009)
Where two headings read alike, the source gives them in different places.

Experiments:
Rat α3β2 = molecular target: T1, Rat α3β2 (Rattus norvegicus, UniProt P04757+P12390); experiment: Voltage clamp of Xenopus oocytes expressing rat α3β2 nAChR; type: cell-based
T1 construct: expressed in transfected cells; host or cells: Xenopus laevis oocytes injected with subunit cRNAs; clones from Dr. Jim Boulter (UCLA)
T1 sequence (P04757 26-499): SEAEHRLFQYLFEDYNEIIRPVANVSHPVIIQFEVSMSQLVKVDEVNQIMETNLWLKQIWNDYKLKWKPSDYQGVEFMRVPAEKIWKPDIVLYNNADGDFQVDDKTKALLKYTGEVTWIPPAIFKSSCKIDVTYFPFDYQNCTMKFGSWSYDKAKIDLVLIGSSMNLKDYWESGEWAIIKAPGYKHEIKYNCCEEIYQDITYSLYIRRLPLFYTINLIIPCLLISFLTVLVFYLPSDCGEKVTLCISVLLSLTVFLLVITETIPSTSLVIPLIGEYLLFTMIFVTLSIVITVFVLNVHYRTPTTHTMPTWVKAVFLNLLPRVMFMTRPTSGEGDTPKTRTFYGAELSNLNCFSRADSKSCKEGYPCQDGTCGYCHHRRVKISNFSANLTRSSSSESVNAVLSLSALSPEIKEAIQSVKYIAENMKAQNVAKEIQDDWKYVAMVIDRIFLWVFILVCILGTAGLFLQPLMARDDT
T1 sequence (P12390 25-500): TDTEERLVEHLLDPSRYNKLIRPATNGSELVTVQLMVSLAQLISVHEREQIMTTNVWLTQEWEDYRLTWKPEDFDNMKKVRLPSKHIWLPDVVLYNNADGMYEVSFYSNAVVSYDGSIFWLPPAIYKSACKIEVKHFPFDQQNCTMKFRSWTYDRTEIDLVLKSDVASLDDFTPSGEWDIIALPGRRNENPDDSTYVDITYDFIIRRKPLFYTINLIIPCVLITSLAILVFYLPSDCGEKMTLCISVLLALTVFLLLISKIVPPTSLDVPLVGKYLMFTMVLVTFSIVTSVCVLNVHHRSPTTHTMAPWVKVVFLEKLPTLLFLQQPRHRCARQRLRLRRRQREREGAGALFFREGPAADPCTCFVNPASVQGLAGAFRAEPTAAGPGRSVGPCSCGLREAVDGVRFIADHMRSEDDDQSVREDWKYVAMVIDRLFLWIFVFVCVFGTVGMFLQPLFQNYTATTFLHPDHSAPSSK
Experimental: Mature (>9 cm) female Xenopus laevis African frogs (NASCO, Ft. Atkinson, Wis.) were used as a source of oocytes. Prior to surgery, frogs were anesthetized by placing the animal in a 1.5 g/l solution of MS222 (3-aminobenzoic acid ethyl ester) for 30 minutes. Oocytes were removed from an incision made in the abdomen.
In order to remove the follicular cell layer, harvested oocytes were treated with 1.25 mg/ml collagenase from Worthington Biochemical Corporation (Freehold, N.J.) for 2 hours at room temperature in calcium-free Barth's solution (88 mM NaCl, 10 mM HEPES pH 7.6, 0.33 mM MgSO4, 0.1 mg/ml gentamicin sulfate). Subsequently, stage 5 oocytes were isolated and injected with 50 nl (5-20 ng) each of the appropriate subunit cRNAs. Recordings were made 2 to 15 days after injection.
Rat neuronal nAChR clones and mouse muscle nAChR cDNA clones were used. The wild-type clones were obtained from Dr. Jim Boulter (UCLA). The rat α6/3 (Dowell et al. J Neurosci, 2003, 23:8445-8452) clone was obtained from Michael McIntosh (University of Utah) and expressed in Xenopus oocytes in combinations with rat β2 and β3. […] The TM2 domain is understood to line the pore of the channel, with alpha helix structure. The 7′ position may actually be directed away from the actual pore lining, but this residue is highly conserved in all of the nAChR. It is valine in all of them except α9 (isoleucine) and β1, where it is alanine. The TM2 mutation in the α6/3 chimera was corrected by using QuickChange (Stratagene) according to their protocols. The corrected α6/3 chimera sequence was confirmed by restriction diagnostics and by automated fluorescent sequencing (University of Florida core facility). The corrected clone was expressed as above in Xenopus oocytes with β2 and β3 and compared to the wild-type α3 co-expressed with β2 and β3.
After linearization and purification of cloned cDNAs, RNA transcripts were prepared in vitro using the appropriate mMessage mMachine kit from Ambion Inc. (Austin, Tex.).
Electrophysiology. The majority of experiments were conducted using OpusXpress 6000A (Axon Instruments, Union City Calif.). OpusXpress is an integrated system that provides automated impalement and voltage clamp of up to eight oocytes in parallel. Cells were automatically perfused with bath solution, and agonist solutions were delivered from a 96-well plate. Both the voltage and current electrodes were filled with 3 M KCl. The agonist solutions were applied via disposable tips, which eliminated any possibility of cross-contamination. Drug applications alternated between ACh controls and experimental applications. Flow rates were set at 2 ml/min for experiments with α7 receptors and 4 ml/min for other subtypes. Cells were voltage-clamped at a holding potential of −60 mV. Data were collected at 50 Hz and filtered at 20 Hz. Agonist applications were 12 seconds in duration followed by 181-second washout periods for α7 receptors and 8 seconds with 241-second wash periods for other subtypes. For some experiments, particularly under conditions where residual inhibition precluded making repeated measurements from single cells (see below), manual oocyte recordings were made as previously described (Papke and Papke Br J of Pharmacol, 2002, 137:49-61). In brief, Warner Instruments (Hamden, Conn.) OC-725C oocyte amplifiers were used, and data were acquired with a minidigi or digidata 1200A with pClamp9 software (Axon Instruments). Sampling rates were between 10 and 20 Hz and the data were filtered at 6 Hz. Cells were voltage clamped at a holding potential of −50 mV.
Experimental protocols and data analysis. Each oocyte received two initial control applications of ACh, an experimental drug application (or co-application of ACh and TMPH), and then follow-up control application(s) of ACh. The control ACh concentrations for α1β1γδ, α3β4, α4β2, α3β2, α3β2α5, α3β2β3, α6/3β2β3 α6β4β3 and α7, receptors were 30 μM, 100 μM, 10 μM, 30 μM, 1 μM 100 μM 100 μM 100 μM and 300 μM, respectively. […]

mice = experiment: Body temperature, nicotine-induced hypothermia; type: in vivo; conditions: for Body temperature Δ° C. (Mean ± SEM): s.c.
Experimental: Animals. Male ICR mice (20-25 g) obtained from Harlan Laboratories (Indianapolis, Ind.) were used throughout the study. Animals were housed in groups of six and had free access to food and water. Adult, male Long-Evans rats (350-460 g), obtained from Harlan (Dublin, Va.), were individually housed in a temperature-controlled (20-22° C.) environment with a 12-hour light-dark cycle (lights on at 7 a.m.). Rats were maintained within the indicated weight range by restricted post-session feeding and had ad libitum water in their home cages. Rats were drug-naive at the beginning of the study. Animals were housed in an AALAC approved facility and the study was approved by the Institutional Animal Care and Use Committee of Virginia Commonwealth University. Body temperature. Rectal temperature was determined by a thermistor probe (inserted 24 mm) and digital thermometer (Yellow Springs Instrument Co., Yellow Springs, Ohio). […] The difference in rectal temperature before and after treatment was calculated for each mouse. The ambient temperature of the laboratory varied from 21-24° C. from day to day. […] Psychopharmacology (Berl), 1995, 117:67-73). Eight to twelve mice were tested in each treatment group and each animal was tested only once. Statistical analysis. Statistical analysis of all analgesic and in vivo studies was performed using either t-test or analysis of variance (ANOVA) with Tukey's test post hoc test when appropriate.

[1] = molecular target: T2, mouse muscle-type (α1β1εδ) nAChR (Mus musculus, UniProt P02716+P04756+P09690+P20782); experiment: Voltage clamp of Xenopus oocytes expressing muscle-type nAChR; type: cell-based
T2 construct: expressed in transfected cells; host or cells: Xenopus laevis oocytes injected with subunit cRNAs; clones from Dr. Jim Boulter (UCLA)
T2 sequence (P04756 21-457): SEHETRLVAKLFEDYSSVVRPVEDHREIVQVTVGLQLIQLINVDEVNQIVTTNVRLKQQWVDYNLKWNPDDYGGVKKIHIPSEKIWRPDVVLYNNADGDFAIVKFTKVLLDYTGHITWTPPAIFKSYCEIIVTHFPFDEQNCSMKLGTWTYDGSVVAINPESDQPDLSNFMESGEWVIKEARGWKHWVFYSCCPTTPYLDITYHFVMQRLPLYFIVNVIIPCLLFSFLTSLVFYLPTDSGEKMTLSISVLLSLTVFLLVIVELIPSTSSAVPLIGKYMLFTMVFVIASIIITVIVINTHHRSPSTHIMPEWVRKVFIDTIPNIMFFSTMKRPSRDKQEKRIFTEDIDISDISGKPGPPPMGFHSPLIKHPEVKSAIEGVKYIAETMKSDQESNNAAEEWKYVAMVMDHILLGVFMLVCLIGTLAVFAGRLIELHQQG
T2 sequence (P09690 24-501): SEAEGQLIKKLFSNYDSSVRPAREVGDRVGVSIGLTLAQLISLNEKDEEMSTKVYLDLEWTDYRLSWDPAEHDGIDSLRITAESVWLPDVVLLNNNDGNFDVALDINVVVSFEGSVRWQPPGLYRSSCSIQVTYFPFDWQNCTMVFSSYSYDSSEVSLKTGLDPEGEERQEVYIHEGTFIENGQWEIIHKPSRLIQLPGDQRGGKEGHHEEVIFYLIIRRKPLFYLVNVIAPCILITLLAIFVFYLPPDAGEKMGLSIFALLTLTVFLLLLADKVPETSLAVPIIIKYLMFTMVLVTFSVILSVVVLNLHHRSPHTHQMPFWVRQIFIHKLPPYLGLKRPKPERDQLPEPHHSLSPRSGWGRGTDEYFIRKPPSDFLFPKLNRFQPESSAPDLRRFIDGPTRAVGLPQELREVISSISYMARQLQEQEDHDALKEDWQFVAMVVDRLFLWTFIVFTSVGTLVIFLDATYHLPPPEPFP
T2 sequence (P20782 21-493): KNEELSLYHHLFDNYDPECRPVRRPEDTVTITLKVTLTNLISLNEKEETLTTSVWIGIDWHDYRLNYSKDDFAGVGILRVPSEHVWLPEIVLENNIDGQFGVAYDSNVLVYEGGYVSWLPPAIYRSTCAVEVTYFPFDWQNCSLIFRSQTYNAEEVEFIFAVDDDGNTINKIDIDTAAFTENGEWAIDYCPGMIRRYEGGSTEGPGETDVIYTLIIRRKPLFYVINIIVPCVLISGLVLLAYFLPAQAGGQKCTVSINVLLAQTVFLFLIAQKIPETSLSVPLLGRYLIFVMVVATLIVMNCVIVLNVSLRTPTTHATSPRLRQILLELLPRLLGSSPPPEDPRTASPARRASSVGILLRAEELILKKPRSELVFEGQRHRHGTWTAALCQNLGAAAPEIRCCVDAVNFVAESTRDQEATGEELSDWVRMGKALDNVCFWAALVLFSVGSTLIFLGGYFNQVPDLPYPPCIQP
T2 sequence (P02716 25-520): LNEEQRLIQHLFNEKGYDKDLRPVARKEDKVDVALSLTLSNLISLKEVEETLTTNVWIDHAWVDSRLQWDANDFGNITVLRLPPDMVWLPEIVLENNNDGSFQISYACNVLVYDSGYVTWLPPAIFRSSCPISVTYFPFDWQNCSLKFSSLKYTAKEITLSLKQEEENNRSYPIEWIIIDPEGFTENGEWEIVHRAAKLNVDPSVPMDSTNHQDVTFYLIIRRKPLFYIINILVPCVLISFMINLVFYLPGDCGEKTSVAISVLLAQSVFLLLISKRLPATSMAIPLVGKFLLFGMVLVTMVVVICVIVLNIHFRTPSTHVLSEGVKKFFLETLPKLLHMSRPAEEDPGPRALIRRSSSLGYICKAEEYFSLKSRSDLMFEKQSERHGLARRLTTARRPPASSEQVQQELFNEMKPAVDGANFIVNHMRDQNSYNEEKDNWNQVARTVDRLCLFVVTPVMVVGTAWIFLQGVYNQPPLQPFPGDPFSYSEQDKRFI

[2] = inhibition still present after 5-minute wash, read-out: IC50 (recovery)

## CCCCCCC(=O)OC1CC(C)(C)NC(C)(C)C1 [TMPH, 2,2,6,6-tetramethylpiperidin-4-yl heptanoate]
Rat α3β2; 1 μM TMPH alone, after the washout period
  use-independent inhibition, TMPH applied alone: no detectable effect
Rat α3β2; decrease in net charge, 30 μM ACh co-applied with TMPH, read-out: IC50 (area)
  IC50: 440 ± 90 nM
Rat α3β2; decrease in peak current amplitude, 30 μM ACh co-applied with TMPH, read-out: IC50 (peak)
  IC50: 3700 ± 1200 nM
Rat α3β2; following a 5-minute wash
  reversibility of inhibition: virtually no recovery
Rat α3β2; [2]
  IC50: 230 ± 30 nM
Rat α3β2; ratio
  IC50 net charge/IC50 peak: 0.12
  IC50 recovery/IC50 net charge: 0.52
mice; TMPH 20 mg/kg, nicotine 2.5 mg/kg
  effect on nicotine-induced hypothermia: not blocked
mice; TMPH (20 mg/kg)/Nicotine (1.5 mg/kg)
  Body temperature Δ° C. (Mean ± SEM): −5.2 ± 0.4 °C
mice; TMPH (20 mg/kg)/Saline
  Body temperature Δ° C. (Mean ± SEM): −1.0 ± 0.2 °C
mice; TMPH @ 20 mg/kg
  blockade of nicotine-induced hypothermia: 0% blockade @ 20
mice; s.c. injection, at the indicated doses and times
  effect of TMPH by itself on body temperature: did not have a significant effect
[1]; after a 5-minute wash
  reversibility of inhibition: readily reversible
[1]; decrease in net charge, ACh co-applied with TMPH, read-out: IC50 (area)
  IC50: 390 ± 50 nM
[1]; decrease in peak current amplitude, ACh co-applied with TMPH, read-out: IC50 (peak)
  IC50: 276 ± 20 nM
[1]; [2]
  IC50: 27000 ± 5500 nM
[1]; ratio
  IC50 net charge/IC50 peak: 1.4
  IC50 recovery/IC50 net charge: 69
